Test results reported in patent publication US20230279244A1, “RESIN COMPOSITION, COATED AND DRIED PRODUCT, MELT-KNEADED PRODUCT, OPTICAL FILTER, IMAGE DISPLAY DEVICE, SOLID-STATE IMAGING ELEMENT, SQUARYLIUM COMPOUND, AND METHOD FOR PRODUCING THE SAME” (FUJIFILM Corporation, priority 2020, published 2023).

What was measured:
[1] = Measurement of maximal absorption wavelength of squarylium compound (Test Example 1); type: physicochemical; conditions: in chloroform, concentration 1×10^−6 mol/L, optical path length 10 mm
Experimental: The obtained squarylium compound B-12 was dissolved in chloroform (concentration: 1×10^−6 mol/L), and the maximum absorption wavelength λmax of the squarylium compound B-12 was measured using a cell having an optical path length of 10 mm and using a spectrophotometer UV-1800PC (manufactured by Shimadzu Corporation).

[2] = Evaluation of solubility of squarylium compound in toluene/cyclohexanone mixed solvent (Test Example 2); type: physicochemical; conditions: for Solubility: mixed solvent toluene/cyclohexanone=90/10 (vol %); for Solubility, measured dissolved amount: dissolved in 100 parts by mass of toluene/cyclohexanone=90/10 (vol %)
Experimental: Solubility of the obtained squarylium compound B-12 in a mixed solvent of toluene/cyclohexanone (toluene/cyclohexanone=90/10 (vol %)) was confirmed. Specifically, a dissolved amount (% by mass) of squarylium compound B-12 dissolved in 100 parts by mass of the mixed solvent of toluene/cyclohexanone was measured.
The solubility was evaluated by applying the obtained dissolved amount to the following standard.
—Evaluation Standard of Solubility—
B: 0.01% by mass or more and less than 0.1% by mass
C: less than 0.01% by mass

Compound	λmax (maximum absorption wavelength) [1]	Solubility [2]	Solubility, measured dissolved amount [2]	Solubility in an organic solvent (in words) ([2]; summary of Tables 1 to 5)
CCCCC(CC)C(=O)NC1=CC(=[N+](/CCCC)c2ccc(C)cc2)/C=CC/1=C1\C(=O)C(c2ccc(N(CCCC)c3ccc(C)cc3)cc2NC(=O)C(CC)CCCC)=C1[O-] (stereo not shown) [A-1]	688 nm	A (0.1% by mass or more)		
CCCCC(CC)CN(c1ccc(C)cc1)c1ccc(C2=C([O-])/C(=C3C=C/C(=[N+](\CC(CC)CCCC)c4ccc(C)cc4)C=C/3NC(=O)C(C)(C)CC)C2=O)c(NC(=O)C(C)(C)CC)c1 (stereo not shown) [A-2]	690 nm	A (0.1% by mass or more)		
CCCCC(CC)CN(CC(CC)CCCC)c1ccc(C2=C([O-])/C(=C3/C=CC(=[N+](c4ccc(C)cc4)c4ccc(C)cc4)C=C3NC(=O)C(C)(C)CC)C2=O)c(NC(=O)C(C)(C)CC)c1 (stereo not shown) [A-4]	699 nm	A (0.1% by mass or more)		
CCCCC(CC)CN(CC(CC)CCCC)c1ccc(C2=C([O-])/C(=C3C=C/C(=[N+](\CC(CC)CCCC)c4ccc(C)cc4)C=C/3NC(=O)C(C)(C)CC)C2=O)c(NC(=O)C(C)(C)CC)c1 (stereo not shown) [A-5]	681 nm	A (0.1% by mass or more)		
CCCCc1ccc(N(CC(CC)CCCC)c2ccc(C3=C([O-])/C(=C4C=C/C(=[N+](\CC(CC)CCCC)c5ccc(CCCC)cc5)C=C/4NC(=O)C(C)(C)CC)C3=O)c(NC(=O)C(C)(C)CC)c2)cc1 (stereo not shown) [A-19]	687 nm	A (0.1% by mass or more)		
CCCCc1ccc(N(CC(CC)CCCC)c2ccc(C3=C([O-])/C(=C4C=C/C(=[N+](\CC(CC)CCCC)c5ccc(CCCC)cc5)C=C/4NC(=O)c4c(C)cc(C)cc4C)C3=O)c(NC(=O)c3c(C)cc(C)cc3C)c2)cc1 (stereo not shown) [A-20]	696 nm	A (0.1% by mass or more)		
CCCCc1ccc(N(CC(CC)CCCC)c2ccc(C3=C([O-])/C(=C4C=C/C(=[N+](\CC(CC)CCCC)c5ccc(CCCC)cc5)C=C/4NC(=O)C(F)(F)F)C3=O)c(NC(=O)C(F)(F)F)c2)cc1 (stereo not shown) [A-22]	688 nm	A (0.1% by mass or more)		
CCCCC(CC)CN(c1ccc(C2=C([O-])/C(=C3C=C/C(=[N+](\CC(CC)CCCC)c4ccc(C)cc4C)C=C/3NC(=O)C(C)(C)CC)C2=O)c(NC(=O)C(C)(C)CC)c1)c1ccc(C)cc1C (stereo not shown) [A-26]	688 nm	A (0.1% by mass or more)		
CCCCc1ccc(N(CC(CC)CCCC)c2ccc(C3=C([O-])/C(=C4C=C/C(=[N+](\CC(CC)CCCC)c5ccc(CCCC)cc5)C=C/4NC(=O)c4ccccc4)C3=O)c(NC(=O)c3ccccc3)c2)cc1 (stereo not shown) [A-28]	695 nm	A (0.1% by mass or more)		
CCCCc1ccc(N(CC(CC)CCCC)c2ccc(C3=C([O-])/C(=C4C=C/C(=[N+](\CC(CC)CCCC)c5ccc(CCCC)cc5)C=C/4NC(=O)c4ccccc4C)C3=O)c(NC(=O)c3ccccc3C)c2)cc1 (stereo not shown) [A-29]	695 nm	A (0.1% by mass or more)		
CCCCc1ccc(N(CC(CC)CCCC)c2ccc(C3=C([O-])/C(=C4C=C/C(=[N+](\CC(CC)CCCC)c5ccc(CCCC)cc5)C=C/4NC(=O)c4ccc5ccccc5c4)C3=O)c(NC(=O)c3ccc4ccccc4c3)c2)cc1 (stereo not shown) [A-30]	697 nm	A (0.1% by mass or more)		
CC(=O)NC1=CC(=[N+](/C)c2ccccc2)/C=CC/1=C1/C(=O)C(c2ccc(N(C)c3ccccc3)cc2NC(C)=O)=C1[O-] [C-1, reference compound]	680 nm	C (less than 0.01% by mass)	(<0.005% by mass	
CC(=O)NC1=CC(=[N+](c2ccccc2)c2ccccc2)C=C/C1=C1/C(=O)C(c2ccc(N(c3ccccc3)c3ccccc3)cc2NC(C)=O)=C1[O-] [C-2, reference compound]	737 nm	C (less than 0.01% by mass)	(<0.005% by mass	
Cc1ccc(N(C)c2ccc(C3=C([O-])/C(=C4C=C/C(=[N+](\C)c5ccc(C)cc5)C=C\4O)C3=O)c(O)c2)cc1 [C-3, reference compound]	658 nm	C (less than 0.01% by mass)	(<0.005% by mass	
CCN(c1ccc(C)cc1)c1ccc(C2=C([O-])/C(=C3C=C/C(=[N+](\CC)c4ccc(C)cc4)C=C/3NC(=O)C(C)C)C2=O)c(NC(=O)C(C)C)c1 [C-4, reference compound]	685 nm	B (0.01% by mass or more and less than 0.1% by mass)		exhibiting solubility in an organic solvent
CCCCN(c1ccccc1)c1ccc(C2=C([O-])/C(=C3C=C/C(=[N+](\CCCC)c4ccccc4)C=C\3NC(C)=O)C2=O)c(NC(C)=O)c1 [C-6, reference compound]	681 nm	C (less than 0.01% by mass)	(<0.01% by mass	
